Test results published in PubChem BioAssay AID248 (DTP/NCI, 2004).
Where “and” joins values, the source holds several entries; their conditions need not be identical. Equal values may be shown once. Toxic doses and inconclusive results are not listed. Cut-off read from the data, not from the text of the source: active = T/C of 150% or more; inactive = T/C below 125%.

Tested on: L1210 leukemia ip in BDF1 mice, survival T/C
Test: NCI In Vivo Anticancer Drug Screen. Data for tumor model L1210 Leukemia (intraperitoneal) in B6D2F1 (BDF1) mice
Conditions: endpoint: mean survival time, higher = longer survival
Method in brief: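 Transplanted-tumor mice were given test agent; controls received vehicle only. Survival readings from the two groups were divided (treated over control).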

[1] = dose: 100.0 mg/kg/injection, schedule: Q04DX002 (ip), vehicle: Klucel (hydroxypropylcellulose) (HPC)
[2] = dose: 100.0 mg/kg/injection, schedule: Q04DX003 (ip), vehicle: saline
[3] = dose: 200.0 mg/kg/injection, schedule: Q04DX003 (ip), vehicle: saline
[4] = dose: 100.0 mg/kg/injection, schedule: Q01DX001 (ip), vehicle: Klucel (hydroxypropylcellulose) (HPC)
[5] = dose: 100.0 mg/kg/injection, schedule: Q01DX009 (ip), vehicle: Klucel (hydroxypropylcellulose) (HPC)
[6] = dose: 100.0 mg/kg/injection, schedule: Q04DX003 (ip), vehicle: Klucel (hydroxypropylcellulose) (HPC)
[7] = dose: 200.0 mg/kg/injection, schedule: Q01DX001 (ip), vehicle: Klucel (hydroxypropylcellulose) (HPC)
[8] = dose: 200.0 mg/kg/injection, schedule: Q01DX009 (ip), vehicle: Klucel (hydroxypropylcellulose) (HPC)
[9] = dose: 200.0 mg/kg/injection, schedule: Q04DX003 (ip), vehicle: Klucel (hydroxypropylcellulose) (HPC)
[10] = dose: 400.0 mg/kg/injection, schedule: Q01DX001 (ip), vehicle: Klucel (hydroxypropylcellulose) (HPC)
[11] = dose: 400.0 mg/kg/injection, schedule: Q01DX009 (ip), vehicle: Klucel (hydroxypropylcellulose) (HPC)
[12] = dose: 400.0 mg/kg/injection, schedule: Q04DX003 (ip), vehicle: Klucel (hydroxypropylcellulose) (HPC)
[13] = dose: 50.0 mg/kg/injection, schedule: Q01DX001 (ip), vehicle: saline
[14] = dose: 100.0 mg/kg/injection, schedule: Q01DX001 (ip), vehicle: saline
[15] = dose: 200.0 mg/kg/injection, schedule: Q01DX001 (ip), vehicle: saline
[16] = dose: 400.0 mg/kg/injection, schedule: Q01DX001 (ip), vehicle: saline
[17] = dose: 100.0 mg/kg/injection, schedule: Q04DX002 (ip), vehicle: other
[18] = dose: 200.0 mg/kg/injection, schedule: Q04DX002 (ip), vehicle: other
[19] = dose: 400.0 mg/kg/injection, schedule: Q04DX002 (ip), vehicle: other
[20] = dose: 100.0 mg/kg/injection, schedule: Q01DX009 (ip), vehicle: saline with Tween-80
[21] = dose: 100.0 mg/kg/injection, schedule: Q04DX003 (ip), vehicle: saline with Tween-80
[22] = dose: 200.0 mg/kg/injection, schedule: Q01DX009 (ip), vehicle: saline with Tween-80
[23] = dose: 200.0 mg/kg/injection, schedule: Q04DX003 (ip), vehicle: saline with Tween-80
[24] = dose: 400.0 mg/kg/injection, schedule: Q01DX009 (ip), vehicle: saline with Tween-80
[25] = dose: 400.0 mg/kg/injection, schedule: Q04DX003 (ip), vehicle: saline with Tween-80

Measured: T/C

[Cl][Pt+2][Cl].c1ccc(C2CC[N-]CC2)cc1.c1ccc(C2CC[N-]CC2)cc1
inactive: dose: 6.25 mg/kg/injection, schedule: Q04DX003 (ip), vehicle: water 100 % of control | dose: 12.5 mg/kg/injection, schedule: Q04DX003 (ip), vehicle: water 100 % of control | dose: 25.0 mg/kg/injection, schedule: Q04DX003 (ip), vehicle: water 105 % of control | dose: 50.0 mg/kg/injection, schedule: Q04DX003 (ip), vehicle: water 102 % of control

O=[N+]([O-])c1ccc(Nc2ccccc2)c([N+](=O)[O-])c1
inactive: dose: 50.0 mg/kg/injection, schedule: Q04DX002 (ip), vehicle: Klucel (hydroxypropylcellulose) (HPC) 103 % of control | [1] 92 % of control

Nc1ccc(CCc2ccccc2)c(C(=O)O)c1
inactive: dose: 50.0 mg/kg/injection, schedule: Q04DX003 (ip), vehicle: saline 104 % of control | [2] 110 % of control | [3] 96 % of control

Cc1ccc(C(=O)CCCC(=O)O)c(O)c1
inactive: [4] 96 % of control | [5] 97 % of control | [6] 102 % of control | [7] 104 % of control | [8] 93 % of control | [9] 112 % of control | [10] 95 % of control | [11] 92 % of control | [12] 100 % of control

CC1(CCC(=O)O)CCCCC1=O (configuration not stated)
inactive: [2] 96 % of control | [3] 96 % of control | dose: 400.0 mg/kg/injection, schedule: Q04DX003 (ip), vehicle: saline 112 % of control

O=C(/C=C\c1ccc(Cl)cc1)OCCCCOC(=O)/C=C/c1ccc(Cl)cc1
inactive: [13] 96 % of control | [14] 93 % of control | [15] 93 % of control | [16] 93 % of control

CCCCCCCCCCOc1ccc(OC)cc1
inactive: [17] 103 % of control | [18] 95 % of control | [19] 106 % of control

CCN(CCO)c1ccc(N=Nc2ccc([N+](=O)[O-])cc2)cc1
inactive: [4] 105 % of control | [7] 96 % of control | [10] 100 % of control

Nc1ccc(C(=O)N/N=C/c2ccc(Cl)cc2Cl)cc1
inactive: [1] 93 % of control | dose: 200.0 mg/kg/injection, schedule: Q04DX002 (ip), vehicle: Klucel (hydroxypropylcellulose) (HPC) 93 % of control

CNc1nc2c(=O)[nH]c(N)nc2n1C1OC(CO)C(O)C1O (configuration not stated)
inactive: dose: 50.0 mg/kg/injection, schedule: Q01DX001 (ip), vehicle: carboxymethylcellulose (CMC) 101 % of control | dose: 100.0 mg/kg/injection, schedule: Q01DX001 (ip), vehicle: carboxymethylcellulose (CMC) 104 % of control | dose: 200.0 mg/kg/injection, schedule: Q01DX001 (ip), vehicle: carboxymethylcellulose (CMC) 95 % of control | dose: 400.0 mg/kg/injection, schedule: Q01DX001 (ip), vehicle: carboxymethylcellulose (CMC) 89 % of control

CCCCCC(=O)NC1CCCCC1
inactive: dose: 75.0 mg/kg/injection, schedule: Q01DX001 (ip), vehicle: saline 89 % of control | dose: 150.0 mg/kg/injection, schedule: Q01DX001 (ip), vehicle: saline 89 % of control

CCCCCCCCCCCCCCCCCCNC(=O)Nc1c(C)cc(C)cc1C
inactive: dose: 100.0 mg/kg/injection, schedule: Q01DX009 (ip), vehicle: gum acacia 94 % of control | dose: 100.0 mg/kg/injection, schedule: Q04DX003 (ip), vehicle: gum acacia 90 % of control | dose: 200.0 mg/kg/injection, schedule: Q01DX009 (ip), vehicle: gum acacia 87 % of control | dose: 200.0 mg/kg/injection, schedule: Q04DX003 (ip), vehicle: gum acacia 93 % of control | dose: 400.0 mg/kg/injection, schedule: Q01DX009 (ip), vehicle: gum acacia 94 % of control | dose: 400.0 mg/kg/injection, schedule: Q04DX003 (ip), vehicle: gum acacia 87 % of control

CSc1nc(NC(=O)CCl)cc(=O)[nH]1
inactive: dose: 25.0 mg/kg/injection, schedule: Q01DX009 (ip), vehicle: Klucel (hydroxypropylcellulose) (HPC) 93 % of control and 97 % of control and 89 % of control | [5] 97 % of control and 89 % of control | [6] 90 % of control | [9] 98 % of control | [12] 102 % of control

CC1CCC=C2C(=O)C3OC(C)(C)C(C3O)C21C (configuration not stated)
inactive: [20] 96 % of control | [21] 97 % of control | [22] 91 % of control | [23] 103 % of control | [24] 93 % of control | [25] 90 % of control

COc1ccc(C2(CO)OC(CO)C(O)C2O)cc1 (configuration not stated)
inactive: [13] 105 % of control | [14] 103 % of control | [15] 97 % of control | [16] 94 % of control

COc1ccc(NC(=O)CC=C(C)C)nn1
inactive: dose: 50.0 mg/kg/injection, schedule: Q01DX009 (ip), vehicle: Klucel (hydroxypropylcellulose) (HPC) 100 % of control | [5] 100 % of control | [6] 102 % of control | [8] 91 % of control | [9] 104 % of control | [12] 110 % of control

c1ccc(C2OC(c3ccccc3)C(c3ccccc3)OC2c2ccccc2)cc1 (configuration not stated)
inactive: [5] 92 % of control | [8] 97 % of control | [11] 92 % of control

CC1CCC(C2=CSC3CCCCC3N2)C(C)C1 (configuration not stated)
inactive: [17] 111 % of control | [18] 101 % of control | [19] 97 % of control

O=S1(=O)c2ccccc2-c2ncccc21
inactive: dose: 25.0 mg/kg/injection, schedule: Q01DX001 (ip), vehicle: saline with Tween-80 105 % of control | dose: 50.0 mg/kg/injection, schedule: Q01DX001 (ip), vehicle: saline with Tween-80 109 % of control | dose: 100.0 mg/kg/injection, schedule: Q01DX001 (ip), vehicle: saline with Tween-80 109 % of control

O=[As](O)(CC(O)COc1ccccc1)c1ccccc1 (configuration not stated)
inactive: dose: 6.25 mg/kg/injection, schedule: Q01DX001 (ip), vehicle: saline with Tween-80 98 % of control | dose: 12.5 mg/kg/injection, schedule: Q01DX001 (ip), vehicle: saline with Tween-80 98 % of control

COc1cc(Cl)ccc1NC(=O)C(O)C(O)C(O)C(O)CO (configuration not stated)
inactive: dose: 100.0 mg/kg/injection, schedule: Q01DX001 (ip), vehicle: other 97 % of control | dose: 100.0 mg/kg/injection, schedule: Q01DX009 (ip), vehicle: other 100 % of control and 103 % of control | [17] 98 % of control and 103 % of control | dose: 100.0 mg/kg/injection, schedule: Q04DX003 (ip), vehicle: carboxymethylcellulose (CMC) 103 % of control | dose: 200.0 mg/kg/injection, schedule: Q01DX001 (ip), vehicle: other 90 % of control | dose: 200.0 mg/kg/injection, schedule: Q01DX009 (ip), vehicle: other 94 % of control and 97 % of control | [18] 98 % of control and 92 % of control | dose: 200.0 mg/kg/injection, schedule: Q04DX003 (ip), vehicle: carboxymethylcellulose (CMC) 100 % of control | dose: 400.0 mg/kg/injection, schedule: Q01DX001 (ip), vehicle: other 101 % of control | dose: 400.0 mg/kg/injection, schedule: Q01DX009 (ip), vehicle: other 95 % of control and 97 % of control | [19] 103 % of control and 113 % of control | dose: 400.0 mg/kg/injection, schedule: Q04DX003 (ip), vehicle: carboxymethylcellulose (CMC) 103 % of control

O=c1[nH]cnc2c(Cl)c(C(Cl)(Cl)Cl)nn12 (tested in a mixture with another compound)
inactive: [20] 97 % of control | [21] 104 % of control | [22] 92 % of control | [23] 98 % of control | [24] 97 % of control | [25] 97 % of control

CC1CCCCN1Cc1ccccc1COC(=O)c1ccc([N+](=O)[O-])cc1Cl (configuration not stated)
inactive: dose: 100.0 mg/kg/injection, schedule: Q04DX002 (ip), vehicle: saline with Tween-80 94 % of control | dose: 200.0 mg/kg/injection, schedule: Q04DX002 (ip), vehicle: saline with Tween-80 97 % of control
